Measurements taken from patent publication US20120065228A1, “COMPOSITIONS AND METHODS FOR TREATING, CONTROLLING, REDUCING, OR AMELIORATING OCULAR INFLAMMATORY WITH LOWER RISK OF INCREASED INTRAOCULAR PRESSURE” (priority 2007, published 2012).

Tested on: intraocular pressure (IOP) in New Zealand White rabbits
Assay: Intraocular pressure in New Zealand White rabbits, topical dosing four times daily
Type: in vivo
Settings: for Intraocular Pressure, MEAN: A.M. readings
Experimental: On Days 1-31, animals received daily topical doses of the appropriate test article into the right eye. Animals were dosed four times per day, with doses administered 2 hours apart. Doses were administered using a calibrated 50-μL pipette. The eyelids were held close for 10 seconds immediately following dosing. The time of each dose administration was recorded.
Intraocular pressure (“IOP”) was determined for both eyes of each animal on Days 3, 5, 10, 12, 16, 18, 22, 24, 26, 30, and 32. LOP was evaluated with a Medtronic Solan, Model 30 classic pneumatonometer. Proparacaine hydrochloride 0.5% (1 drop) was delivered to each eye prior to IOP measurement. IOP was measured on Monday, Wednesday, and Friday of each week. A two-point diurnal curve was established: IOP was recorded at 8 a.m. and 12 p.m. on Day 3, and at 8 a.m. and 2 p.m. on later days, with a ±1 hour range for each of these times. The time of the measurements was recorded.
Descriptive statistics were prepared for IOP data of each treatment group (left and right eyes separately) at each measurement interval. The statistics included the number of observations (“N”), mean, standard deviation (“STD”), and standard error (“SEM”). Statistical analyses were conducted on IOP results using Statistical Analysis Systems (SAS Institute, Inc., Cary, N.C., V8.0). Parameters were evaluated using analysis of variance/GLM Procedure followed by Tukey's Standardized Range Test (Tukey, 1985) for post hoc comparisons of group means. The level of significance was set at a probability of p<0.05 for all statistical procedures. Group IOP means were compared at each interval, with left and right eyes compared separately.
IOP data for the following six animals were excluded from group statistics: Group A, Nos. 3081, 3037, 3068, and 3011; Group C, No. 3034; and Group E, No. 3084.

Compound: Cc1ccc2c(NCC(O)(CC(C)(C)c3cc(F)cc4c3OCC4)C(F)(F)F)cccc2n1 (stereo not shown) [BOL-303242-X]
- Intraocular Pressure, MEAN (1 mg/g BOL-303242-X (Group D), untreated left eyes, Day 3): 23.5 mmHg
- Intraocular Pressure, MEAN (1 mg/g BOL-303242-X (Group D), untreated left eyes, Day 5): 24.4 mmHg
- Intraocular Pressure, MEAN (1 mg/g BOL-303242-X (Group D), untreated left eyes, Day 10): 24.5 mmHg
- Intraocular Pressure, MEAN (1 mg/g BOL-303242-X (Group D), untreated left eyes, Day 12): 22.2 mmHg
- Intraocular Pressure, MEAN (1 mg/g BOL-303242-X (Group D), untreated left eyes, Day 16): 21.6 mmHg
- Intraocular Pressure, MEAN (1 mg/g BOL-303242-X (Group D), untreated left eyes, Day 18): 23.3 mmHg
- Intraocular Pressure, MEAN (1 mg/g BOL-303242-X (Group D), untreated left eyes, Day 22): 22.4 mmHg
- Intraocular Pressure, MEAN (1 mg/g BOL-303242-X (Group D), untreated left eyes, Day 24): 22.4 mmHg
- Intraocular Pressure, MEAN (1 mg/g BOL-303242-X (Group D), untreated left eyes, Day 26): 22.9 mmHg
- Intraocular Pressure, MEAN (1 mg/g BOL-303242-X (Group D), untreated left eyes, Day 30): 23.4 mmHg
- Intraocular Pressure, MEAN (1 mg/g BOL-303242-X (Group D), untreated left eyes, Day 32): 24.1 mmHg
- Intraocular Pressure, MEAN (1 mg/g BOL-303242-X (Group D), untreated left eyes, Pre-Study): 23.9 mmHg
- Intraocular Pressure, MEAN (5 mg/g BOL-303242-X (Group C), untreated left eyes, Day 3): 23.8 mmHg
- Intraocular Pressure, MEAN (5 mg/g BOL-303242-X (Group C), untreated left eyes, Day 5): 24.4 mmHg
- Intraocular Pressure, MEAN (5 mg/g BOL-303242-X (Group C), untreated left eyes, Day 10): 24.6 mmHg
- Intraocular Pressure, MEAN (5 mg/g BOL-303242-X (Group C), untreated left eyes, Day 12): 23.8 mmHg
- Intraocular Pressure, MEAN (5 mg/g BOL-303242-X (Group C), untreated left eyes, Day 16): 23.4 mmHg
- Intraocular Pressure, MEAN (5 mg/g BOL-303242-X (Group C), untreated left eyes, Day 18): 21.9 mmHg
- Intraocular Pressure, MEAN (5 mg/g BOL-303242-X (Group C), untreated left eyes, Day 22): 21.6 mmHg
- Intraocular Pressure, MEAN (5 mg/g BOL-303242-X (Group C), untreated left eyes, Day 24): 22.1 mmHg
- Intraocular Pressure, MEAN (5 mg/g BOL-303242-X (Group C), untreated left eyes, Day 26): 21.7 mmHg
- Intraocular Pressure, MEAN (5 mg/g BOL-303242-X (Group C), untreated left eyes, Day 30): 22.6 mmHg
- Intraocular Pressure, MEAN (5 mg/g BOL-303242-X (Group C), untreated left eyes, Day 32): 23.1 mmHg
- Intraocular Pressure, MEAN (5 mg/g BOL-303242-X (Group C), untreated left eyes, Pre-Study): 24.2 mmHg
- Intraocular Pressure, MEAN (10 mg/g BOL-303242-X (Group B), untreated left eyes, Day 3): 23.3 mmHg
- Intraocular Pressure, MEAN (10 mg/g BOL-303242-X (Group B), untreated left eyes, Day 5): 23.4 mmHg
- Intraocular Pressure, MEAN (10 mg/g BOL-303242-X (Group B), untreated left eyes, Day 10): 24.0 mmHg
- Intraocular Pressure, MEAN (10 mg/g BOL-303242-X (Group B), untreated left eyes, Day 12): 23.8 mmHg
- Intraocular Pressure, MEAN (10 mg/g BOL-303242-X (Group B), untreated left eyes, Day 16): 22.9 mmHg
- Intraocular Pressure, MEAN (10 mg/g BOL-303242-X (Group B), untreated left eyes, Day 18): 21.2 mmHg
- Intraocular Pressure, MEAN (10 mg/g BOL-303242-X (Group B), untreated left eyes, Day 22): 21.8 mmHg
- Intraocular Pressure, MEAN (10 mg/g BOL-303242-X (Group B), untreated left eyes, Day 24): 20.2 mmHg
- Intraocular Pressure, MEAN (10 mg/g BOL-303242-X (Group B), untreated left eyes, Day 26): 21.7 mmHg
- Intraocular Pressure, MEAN (10 mg/g BOL-303242-X (Group B), untreated left eyes, Day 30): 22.7 mmHg
- Intraocular Pressure, MEAN (10 mg/g BOL-303242-X (Group B), untreated left eyes, Day 32): 22.9 mmHg
- Intraocular Pressure, MEAN (10 mg/g BOL-303242-X (Group B), untreated left eyes, Pre-Study): 23.8 mmHg
- Differences in mean IOP versus the BSS group (BOL-303242-X 1, 5, 10 mg/g suspensions): No statistically significant (p<0.05) differences
- IOP compared to daily dosing with dexamethasone (BOL-303242-X suspensions 0.05, 0.25 or 0.5 mg/dose, daily dosing up to 31 days): did not increase IOP
- Mean IOP after treatment began (rabbits, right eye four times daily up to 31 days, dexamethasone 0.1%, BOL-303242-X 1, 5, 10 mg/g, left and right eyes): This increase was not seen
- Intraocular Pressure, MEAN (treated right eyes, Day 3, 1 mg/g (Group D)): 23.0 mmHg
- Intraocular Pressure, MEAN (treated right eyes, Day 3, 5 mg/g (Group C)): 23.7 mmHg
- Intraocular Pressure, MEAN (treated right eyes, Day 3, 10 mg/g (Group B)): 22.7 mmHg
- Intraocular Pressure, MEAN (treated right eyes, Day 5, 1 mg/g (Group D)): 24.7 mmHg
- Intraocular Pressure, MEAN (treated right eyes, Day 5, 5 mg/g (Group C)): 24.7 mmHg
- Intraocular Pressure, MEAN (treated right eyes, Day 5, 10 mg/g (Group B)): 23.8 mmHg
- Intraocular Pressure, MEAN (treated right eyes, Day 10, 1 mg/g (Group D)): 24.8 mmHg
- Intraocular Pressure, MEAN (treated right eyes, Day 10, 5 mg/g (Group C)): 25.2 mmHg
- Intraocular Pressure, MEAN (treated right eyes, Day 10, 10 mg/g (Group B)): 24.5 mmHg
- Intraocular Pressure, MEAN (treated right eyes, Day 12, 1 mg/g (Group D)): 23.4 mmHg
- Intraocular Pressure, MEAN (treated right eyes, Day 12, 5 mg/g (Group C)): 25.0 mmHg
- Intraocular Pressure, MEAN (treated right eyes, Day 12, 10 mg/g (Group B)): 23.9 mmHg
- Intraocular Pressure, MEAN (treated right eyes, Day 16, 1 mg/g (Group D)): 22.1 mmHg
